Earlier results in publication PMC7686313, “Phase 1 study of mTORC1/2 inhibitor sapanisertib (TAK-228) in advanced solid tumours, with an expansion phase in renal, endometrial or bladder cancer” (British Journal of Cancer, 2020).

Legend:
RCC = settings: patients with RCC; cited from earlier work
[1] = system: refractory clear-cell RCC; set-up: method as in earlier work; settings: 10 mg QD; cited from earlier work

Row | Compound | ORR (RCC) | ORR [1]
1 | CO[C@H]1C[C@@H]2CC[C@@H](C)[C@@](O)(O2)C(=O)C(=O)N2CCCC[C@H]2C(=O)O[C@H]([C@H](C)C[C@@H]2CC[C@@H](OC(=O)C(C)(CO)CO)[C@H](OC)C2)CC(=O)[C@H](C)/C=C(\C)[C@@H](O)[C@@H](OC)C(=O)[C@H](C)C[C@H](C)/C=C/C=C/C=C/1C [temsirolimus] | 8.6% | 
2 | CO[C@H]1C[C@@H]2CC[C@@H](C)[C@@](O)(O2)C(=O)C(=O)N2CCCC[C@H]2C(=O)O[C@H]([C@H](C)C[C@@H]2CC[C@@H](OCCO)[C@H](OC)C2)CC(=O)[C@H](C)/C=C(\C)[C@@H](O)[C@@H](OC)C(=O)[C@H](C)C[C@H](C)/C=C/C=C/C=C/1C [everolimus, reference compound] |  | 13%
